Data taken from patent US9044474B2, “Compositions and methods for increasing drug efficacy in cancer” (The Ohio State University, priority 2010, dated 2015).
Where a name gives a salt, the structure may show the parent alone.

Legend:
CLL cells [1] = assay: LC3 confocal immunofluorescence (autophagosome formation) in CLL cells in vitro; assay type: cell-based, human; details: for LC3 aggregation / LC3 fluorescence (autophagosome formation) versus vehicle: CLL patient cells, 4 hours, rapamycin 5 μM, thapsigargin 1 μM, F-ara-A 5 μM, chlorambucil 20 μM, CAL-101 1 μM, rituximab 10 μg/ml, flavopiridol 2 μM, CQ 0.5 μM
Protocol: After 4 hours exposure to agents, cells were washed in phosphate-buffered saline (PBS) and made adherent on a microscope slide by centrifugation in a Cytospin3 (Shandon) centrifuge. Immediately after cytospin, cells were fixed in cold acetone. […] Nuclei were stained blue with DAPI (Vector Laboratories, Burlingame, Calif.). Images were taken using a 60× objective and 4× digital zoom with Olympus Fluoview 1000 Laser Scanning Confocal microscope at the Ohio State University Campus Microscopy and Imaging Facility. ATF6 antibody was purchased from LifeSpan Biosciences (Seattle, Wash.) and Nrf2 was from Santa Cruz Biotechnology (Santa Cruz, Calif.). Nuclei were evaluated for ATF6 and Nrf2 using confocal microscopy to collect Z stacks, approximately 45 slices per cell, 0.2 μm each.
LC3 intensity and number of dots per cell were both assessed in the fluorescence images. Integrated intensity was measured using Metamorph v.7.0. To calculate the number of “dots” (local extreme point in pixel-intensity profile at which a number of high-intensity pixels form a cluster), a Gaussian filter was first applied to reduce noise. Cells were enumerated electronically by an improved watershed-based algorithm. To quantify co-localization, two binary nuclei images—red (R) and green (G)—are obtained. The correlation value is calculated as the number of white pixels of (R&G) divided by the number of pixels of (RIG), where (R&G) is the intersection of R and G, and (RIG) is the union of R and G. The program used for cell counts and measurement of correlation index is based on MatLab software (Natick, Mass.) and it was developed by members of Department of Biomedical Informatics, The Ohio State University.

[2] = tested on: cell lines 293T, RAW and 697, normal B cells; assay: XBP1 splicing PCR in normal B cells and cell lines; assay type: cell-based
Protocol: RNA was extracted using TRIzol reagent (Invitrogen, Carlsbad, Calif.) and purified using QIAGEN RNeasy columns (Qiagen, Valencia, Calif.). cDNA was prepared with SuperScript First-Strand Synthesis System (Invitrogen). Real-time PCR was performed using primers purchased from Applied Biosystems. Detection was performed using an ABI Prism 7700 sequence detection system (Applied Biosystems). Average relative expression (treatment compared with vehicle) was normalized to the internal control gene CD52. Primers to detect spliced XBP1 were designed using Primer 3 software and purchased from IDT. Samples were analyzed on 10% acrylamide gels.

CLL cells [3] = assay: LC3 fluorescence in CLL cells from patients treated with flavopiridol in clinic; assay type: in vivo, human
Protocol: In this trial, CLL cells were collected pre- and post-therapy 4.5 hours, day 1 (n=16). By confocal fluorescence microscopy, both increased autophagosome formation (P=0.0011) and fusion with lysosomes is observed (FIG. 3F). […] The level of autophagy, as assessed by LC3 fluorescence intensity, was overall greater in non-responders versus responders in both pre- and post-treatment samples (P=0.018); however, the increase in intensity at 4.5 hours post- vs. pre-treatment was only slightly higher for non-responders compared to responders (fold change of 2.51 vs. 1.82, P=0.3445). […] Collectively, these studies provide evidence that our in vitro observations are relevant to the clinical setting.
After 4 hours exposure to agents, cells were washed in phosphate-buffered saline (PBS) and made adherent on a microscope slide by centrifugation in a Cytospin3 (Shandon) centrifuge. Immediately after cytospin, cells were fixed in cold acetone. Next, the cells were incubated in blocking solution (2% bovine serum albumin in PBS) and stained for LC3 (Cell Signaling, Boston, Mass.)) and Lamp2 (Santa Cruz Biotechnology, Santa Cruz, Calif.) by incubating separately with the respective primary antibodies over night, in 4° C., followed by incubation with fluorescent secondary antibodies (Invitrogen, Carlsbad, Calif.): Alexa fluor 594 (red) anti-rabbit for LC3 and Alexa fluor 488 (green) anti-mouse for Lamp2. Nuclei were stained blue with DAPI (Vector Laboratories, Burlingame, Calif.). Images were taken using a 60× objective and 4× digital zoom with Olympus Fluoview 1000 Laser Scanning Confocal microscope at the Ohio State University Campus Microscopy and Imaging Facility. ATF6 antibody was purchased from LifeSpan Biosciences (Seattle, Wash.) and Nrf2 was from Santa Cruz Biotechnology (Santa Cruz, Calif.). Nuclei were evaluated for ATF6 and Nrf2 using confocal microscopy to collect Z stacks, approximately 45 slices per cell, 0.2 μm each.
LC3 intensity and number of dots per cell were both assessed in the fluorescence images. Integrated intensity was measured using Metamorph v.7.0. […] To quantify co-localization, two binary nuclei images—red (R) and green (G)—are obtained. The correlation value is calculated as the number of white pixels of (R&G) divided by the number of pixels of (RIG), where (R&G) is the intersection of R and G, and (RIG) is the union of R and G. The program used for cell counts and measurement of correlation index is based on MatLab software (Natick, Mass.) and it was developed by members of Department of Biomedical Informatics, The Ohio State University.
For the quantification of LC3 fluorescence in serial samples (in vivo data), CLL patients were classified as either “no response” (N=10) or “partial response” (N=6). […]

## CN1CC[C@H](c2c(O)cc(O)c3c(=O)cc(-c4ccccc4Cl)oc23)[C@H](O)C1 [flavopiridol, (cis-5,7-dihydroxy-2-(2-chlorophenyl)-8-[4-(3-hydroxy-1-methyl)-piperidin-yl]-1-benzopyran-4-one)hydrochloride]
CLL cells [1]; CLL cells n=3, flavopiridol washed out after 4 hours
  LC3 fluorescence time course, flavopiridol vs vehicle: significant (P=0.001) at 3, 4 and 8 hours, and decreased to levels comparable to vehicle alone at 12 and 24 hours
CLL cells [1]
  LC3 aggregation / LC3 fluorescence (autophagosome formation) versus vehicle: formation of autophagosomes was observed
CLL cells [1]; listed as Flavopiridol
  LC3 aggregation / LC3 fluorescence (autophagosome formation) versus vehicle: comparable to the increase seen with rapamycin
[2]
  XBP1 splicing: XBP1 splicing is detected
CLL cells [3]; CLL patients n=16, all
  average increase in LC3 integrated intensity at 4.5 hours after flavopiridol infusion versus pretreatment: 2.16 fold
CLL cells [3]; non-responders (N=10)
  fold change of LC3 intensity 4.5 hours vs pre-treatment, non-responders: 2.51 fold
CLL cells [3]; pre- and post-treatment samples, 95% CI 1.07, 1.95
  overall LC3 intensity, non-responders compared to responders: 1.44 times
CLL cells [3]; responders (N=6)
  fold change of LC3 intensity 4.5 hours vs pre-treatment, responders: 1.82 fold
